Source: patent US20090197929A1, “Azolylmethyloxiranes, Their Use for Controlling Phytopathogenic Fungi and Agents Containing Said Compounds” (BASF SE, priority 2006, published 2009)

Assays:
Puccinia recondita = assay: Protective activity against Puccinia recondita on wheat (brown rust of wheat) (Puccrt P1); format: in vivo; details: 250 ppm active compound, potted wheat seedlings sprayed to runoff, inoculated next day; untreated plants 90% infected
Experimental: The active compounds were prepared separately or jointly as a stock solution comprising 25 mg of active compound which was made up to 10 ml using a mixture of acetone and/or DMSO and the emulsifier Wettol EM 31 (wetting agent having emulsifying and dispersing action based on ethoxylated alkylphenols) in a volume ratio of solvent/emulsifier of 99:1. The mixture was then made up to 100 ml with water. This stock solution was diluted with the solvent/emulsifier/water mixture described to give the concentration of active compound stated below. Leaves of potted wheat seedlings were sprayed to runoff point with an aqueous suspension having the active compound concentration stated below. The next day, the treated plants were inoculated with a spore suspension of brown rust of wheat (Puccinia recondita). The plants were then placed in a chamber with high atmospheric humidity (90 to 95%) at 20 to 22° C. for 24 hours. During this time, the spores germinated and the germ tubes penetrated into the leaf tissue. The next day, the test plants were returned to the greenhouse and cultivated at temperatures between 20 and 22° C. and at 65 to 70% relative atmospheric humidity for a further 7 days. The extent of the rust fungus development on the leaves was then determined visually.

Pyrenophora teres = assay: Activity against net blotch of barley caused by Pyrenophora teres at 1 day protective application (Pyrnte P1); format: in vivo, Pyrenophora [syn. Drechslera] teres on barley; details: 250 ppm active compound, potted barley seedlings sprayed to runoff, inoculated after 24 hours, assessed after 6 days; untreated plants 90% infected
Experimental: The active compounds were prepared separately or jointly as a stock solution comprising 25 mg of active compound which was made up to 10 ml using a mixture of acetone and/or DMSO and the emulsifier Wettol EM 31 (wetting agent having emulsifying and dispersing action based on ethoxylated alkylphenols) in a volume ratio of solvent/emulsifier of 99:1. The mixture was then made up to 100 ml with water. This stock solution was diluted with the solvent/emulsifier/water mixture described to give the concentration of active compound stated below. Leaves of potted barley seedlings were sprayed to runoff point with an aqueous suspension having the active compound concentration stated below. 24 hours after the spray coat had dried on, the test plants were inoculated with an aqueous spore suspension of Pyrenophora [syn. Drechslera] teres, the net blotch pathogen. The test plants were then placed in a greenhouse at temperatures between 20 and 24° C. and at 95 to 100% relative atmospheric humidity. After 6 days, the extent of the development of the disease was determined visually in % infection of the entire leaf area.

## Fc1ccc([C@@]2(Cn3cncn3)O[C@@H]2c2cc(Cl)sc2Cl)cc1 (racemic) [1-{[(2SR,3RS)-3-(2,5-dichlorothiophen-3-yl)-2-(4-fluorophenyl)oxiran-2-yl]methyl}-1H-1,2,4-triazole]
Puccinia recondita
  infection (extent of rust fungus development on the leaves, determined visually): 0%
Pyrenophora teres
  infection (% infection of the entire leaf area, determined visually): 15%
